Results reported in patent publication US10160948B2, “Pluripotent embryonic-like stem cells, compositions, methods and uses thereof” (ABT HOLDING COMPANY, priority 1999, dated 2018).

Tests used:
progenitor stem cells = experiment: Proliferation and phenotypic responses to bioactive factors: progenitor cells; format: cell-based
Source text: Having access to mixed populations of progenitor stem cells, progenitor stem cell clones, and pluripotent stem cell clones permits one to address the influence of various bioactive factors (e.g. recombinant growth factors, purified compounds, and novel inductive factors) on the growth characteristics and phenotypic expression of these stem cells.
Cryopreserved cells are thawed and plated in MSC-1 at 5, 10, or 20×10^3 cells per well of gelatinized 24-well plates following the standard protocol. Twenty-four hours after initial plating the medium is changed to testing medium (TM) 1 to 6 (TM-1, TM-2, TM-3, TM-4, TM-5, or TM-6). TM-1 to TM-4 consist of Ultraculture (cat. no. 12-725B, lot. nos. OMO455 [TM-1], 1M1724 [TM-2], 2M0420 [TM-3], or 2M0274 [TM-4], Bio-Whittaker, Walkersville, Md.), medium (EMEM or Opti-MEM 0.01 mM β-mercaptoethanol), and 1% (v/v) antibiotic-antimycotic, pH 7.4. TM-5 consists of 98% (v/v) medium, 1% (v/v) HS, and 1% (v/v) antibiotic-antimycotic, pH 7.4. TM-6 consists of 98.5% (v/v) medium, 0.5% (v/v) HS, and 1% (v/v) antibiotic-antimycotic, pH 7.4. […] Four testing media (TM#'s 1-4), each containing various concentrations of Ultraculture, were used as. […] The four Ultraculture-based testing media were: TM-1=15% (v/v) Ultraculture (Lot no. OMO455): 84% (v/v) medium: 1% (v/v) antibiotics; TM-2=15% (v/v) Ultraculture (Lot no. 1M1724): 84% (v/v) medium: 1% (v/v) antibiotics; TM-3=50% (v/v) Ultraculture (Lot no. 2M0420): 49% (v/v) medium: 1% (v/v) antibiotics; and TM-4=75% (v/v) Ultraculture (Lot no. 2M0274): 24% (v/v) medium: 1% (v/v) antibiotics. Pre-incubation for 24 hr in testing medium alone is used to wash out any potential synergistic components in the MSC-1 medium. Twenty-four hours later the testing medium is changed to one of the following. For controls, TM-1 to TM-6 alone is used. To identify clones of progenitor cells, the medium is replaced with TM-1 to TM-6 containing 2 μg/ml insulin (Sigma), an agent that accelerates the appearance of phenotypic expression markers in progenitor cells (TABLE 12). To identify clones of pluripotent cells, the medium is replaced with TM-1 to TM-6 containing 10^−10 to 10^−6 M dexamethasone (Sigma), a general non-specific lineage-inductive agent (TABLE 13). Control and treated cultures are propagated for an additional 30-45 days with medium changes every other day. Four culture wells are used per concentration per experiment. During the 0-45 day time period the cultures are examined subjectively for changes in morphological characteristics on a daily basis. Alterations in phenotypic expression are correlated with the days of treatment and associated insulin or dexamethasone concentrations. The experiment is then repeated utilizing these parameters to confirm objectively the phenotypic expression markers using established histological, functional/histochemical, ELICA/flow cytometry, and molecular assays (TABLE 13).

[1] = tested on: phenotypic expression markers (ectodermal, mesodermal, endodermal, embryonic); experiment: Immunochemical and histochemical phenotypic analysis of human cell lines incubated with serum + insulin (I) + dexamethasone (D); format: cell-based
Experimental: Additional immunochemical and histochemical studies were performed with a series of human cell lines. Human cells CF-NHDF2 (derived from person dermis) were propogated to various doubling numbers (cell doublings of between 12 and 47), and examined, as above, for multiple induced mesodermal, ectodermal, endodermal and embryonic lineages. Human cells CM-SkM2 and CF-SkM2, were similarly examined, after propogation to 12 cell doublings. TABLES 7-9 provides the results of examination of the human cells CF-NHDF2 at progressive cell doublings, under different growth conditions. TABLE 10 provides the results of examination of the human cells CM-SkM2, and CF-SkM2 at progressive cell doublings, under different growth conditions.
Phenotypic Analysis. The cryopreserved cells were thawed and seeded at 1×10^3 cells per well of 1% gelatinized 96-well plates (Corning, Corning, N.Y.).15,16 The cell lines were incubated with CM only (non-induced) or CM+insulin and/or dexamethasone in a comparison/contrast analysis system to ascertain induced phenotypic expression.7,15 In this assay, insulin accelerates phenotypic expression of lineage-committed progenitor cells but has no effect on the induction of lineage-commitment and subsequent phenotypic expression in pluripotent cells.
Cells were cultured for 30-56 days in CM, CM+[…] insulin, or CM+10^−6M Dexamethasone+/−insulin+1%, 5%, or 10% horse serum. […]

Substance: insulin
- Proliferation, Progenitor: number of times the agent increased the DNA content per well versus its respective control (progenitor stem cells): 2 times
- Phenotypic Expression, Progenitor (progenitor stem cells; presence and approximate distribution of differentiated phenotypes within the culture wells): All+++
- effect on morphology and antigen staining of NHDF2 and PAL3 cells [1]: No change in morphology or change in antigen staining
